The results in this text go back to ChEMBL document CHEMBL1123770, “Systematic synthesis and biological evaluation of alpha- and beta-D-lyxofuranosyl nucleosides of the five naturally occurring nucleic acid bases” (1987).

Assay [1] relates to Vero. Kind of assay: Minimum inhibitory concentration (MIC) required to reduce virus-induced cytopathogenicity by 50% against Coxsackie virus B4 in African green monkey kidney (Vero B)cells. The assay is classed as functional, Chlorocebus sabaeus. To be noted: Chlorocebus sabaeus; read-out: MIC. A general note: Cytopathic effects are the visible damage that an infection or toxin causes in cultured cells.

The subject of assay [2] is WI-38. Kind of assay: Minimum inhibitory concentration (MIC) required to reduce virus-induced cytopathogenicity by 50% against Rhinovirus 9 in human diploid (WI-38)cells. The assay is classed as functional. The following applies: Homo sapiens; read-out: MIC.
Assay [3] is described as follows: Minimum cytotoxic concentration (MCC) required to cause a microscopically detectable alteration of host cell morphology, when incubated with PRK cells. The assay is classed as functional. To be noted: Oryctolagus cuniculus.
Assay [4] has as its system Vero. Kind of assay: Minimum inhibitory concentration (MIC) required to reduce virus-induced cytopathogenicity by 50% against Sindbis virus in African green monkey kidney (Vero B)cells. The assay is classed as functional. To be noted: Chlorocebus sabaeus.
The subject of a further assay is Human respirovirus 3. In words: Minimum inhibitory concentration (MIC) required to reduce virus-induced cytopathogenicity by 50% against Parainfluenza virus-3 in African green monkey kidney (Vero B)cells. The assay is classed as functional.
The subject of assay [5] is WI-38. In words: Minimum cytotoxic concentration (MCC) required to cause a microscopically detectable alteration of host cell morphology, when incubated with WI-38 cells. To be noted: Homo sapiens. The assay is classed as functional.
Assay [6] is filed under the species Oryctolagus cuniculus. Kind of assay: Minimum inhibitory concentration (MIC) required to reduce virus-induced cytopathogenicity by 50% against Vaccinia virus in primary rabbit kidney cells. The assay is classed as functional. To be noted: Oryctolagus cuniculus; read-out: MIC.
For assay [7], the system named is Vero. In words: Minimum inhibitory concentration (MIC) required to reduce virus-induced cytopathogenicity by 50% against forest virus in African green monkey kidney (Vero B)cells. The assay is classed as functional. The following applies: Chlorocebus sabaeus.
The test system of assay [8] is HeLa. Kind of assay: Minimum inhibitory concentration (MIC) required to reduce virus-induced cytopathogenicity by 50% against Vesicular stomatitis virus in HeLa cells. The assay is classed as functional. The following applies: Homo sapiens.
Assay [9] has as its system Vero. In words: Minimum cytotoxic concentration (MCC) required to cause a microscopically detectable alteration of host cell morphology, when incubated with Vero B cells. The assay is classed as functional. The following applies: Chlorocebus sabaeus.
Assay [10] deals with WI-38. In words: Minimum inhibitory concentration (MIC) required to reduce virus-induced cytopathogenicity by 50% against Rhinovirus-1A in human diploid (WI-38)cells. The assay is classed as functional.
Assay [11] concerns HeLa. Kind of assay: Minimum inhibitory concentration (MIC) required to reduce virus-induced cytopathogenicity by 50% against Coxsackie virus B4 in HeLa cells. The assay is classed as functional. The following applies: Homo sapiens.
For assay [12], the species on record is Oryctolagus cuniculus. In words: Minimum inhibitory concentration (MIC) required to reduce virus-induced cytopathogenicity by 50% against G strain of Herpes simplex virus-2 in primary rabbit kidney cells. The assay is classed as functional. To be noted: Oryctolagus cuniculus; read-out: MIC.
The subject of assay [13] is HeLa. Kind of assay: Minimum cytotoxic concentration (MCC) required to cause a microscopically detectable alteration of host cell morphology, when incubated with HeLa cells. The assay is classed as functional. To be noted: Homo sapiens.
For assay [14], the species on record is Oryctolagus cuniculus. In words: Minimum inhibitory concentration (MIC) required to reduce virus-induced cytopathogenicity by 50% against KOS strain of Herpes simplex virus-1 in primary rabbit kidney cells. The assay is classed as functional.
The subject of assay [15] is Vero. Kind of assay: Minimum inhibitory concentration (MIC) required to reduce virus-induced cytopathogenicity by 50% against Reo virus-1 in African green monkey kidney (Vero B)cells. The assay is classed as functional, Chlorocebus sabaeus. To be noted: Chlorocebus sabaeus; read-out: MIC.
The species entered for assay [16] is Oryctolagus cuniculus. In words: Minimum inhibitory concentration (MIC) required to reduce virus-induced cytopathogenicity by 50% against Vesicular stomatitis virus in primary rabbit kidney cells. The assay is classed as functional.

Converted amounts (≈) assume the structure as drawn.

For the compound `Nc1nccc2c1ncn2[C@@H]1C[C@H](CO)[C@@H](O)[C@H]1O` [3-DEAZAARISTEROMYCIN A], the MIC in the assay with Vero [1] is 0.04 µg/mL (≈ 0.151 µM); in the assay on WI-38 [2], over 400 µg/mL; with Vero [4], 70 µg/mL (≈ 265 µM); against Human respirovirus 3, 0.7 µg/mL (≈ 2.65 µM); in the assay listed under Oryctolagus cuniculus [6], 0.7 µg/mL (≈ 2.65 µM); against Vero [7], over 200 µg/mL. For the same compound, the MIC against HeLa [8] was 0.7 µg/mL (≈ 2.65 µM); against WI-38 [10], over 400 µg/mL; in the assay on HeLa [11], over 400 µg/mL; in the assay listed under Oryctolagus cuniculus [12], 150 µg/mL (≈ 568 µM); in the assay filed under Oryctolagus cuniculus [14] it was over 400 µg/mL; with Vero [15] it was 1 µg/mL (≈ 3.78 µM). Also, the MIC in the assay filed under Oryctolagus cuniculus [16] is 0.2 µg/mL (≈ 0.757 µM). Besides, the MCC (in [3]; in the assay on WI-38 [5]; with Vero [9]; with HeLa [13]) was over 400 µg/mL throughout.
